According to US11051515B2, “3-acyl-benzamides and their use as herbicides” (Bayer Aktiengesellschaft, priority 2017, dated 2021):

Key:
CYPES [1] = test: Post-emergence action against CYPES; type: in vivo, Cyperus esculentus; settings: post-emergence, dosage 80 g/ha, visual assessment about 3 weeks after treatment vs untreated controls
Procedure: Seeds of monocotyledonous and dicotyledonous weed and crop plants are laid out in sandy loam soil in wood-fiber pots, covered with soil and cultivated in a greenhouse under good growth conditions. 2 to 3 weeks after sowing, the test plants are treated at the one-leaf stage. The compounds of the invention, formulated in the form of wettable powders (WP) or as emulsion concentrates (EC), are then sprayed onto the green parts of the plants in the form of an aqueous suspension or emulsion at a water application rate equating to […], with addition of 0.2% wetting agent. After the test plants have been left to stand in the greenhouse under optimal growth conditions for about 3 weeks, the action of the preparations is assessed visually in comparison to untreated controls (herbicidal action in percent (%): 100% activity=the plants have died, 0% activity=like control plants). […] At the same time, inventive compounds leave Gramineae crops such as barley, wheat, rye, millet/Sorghum, corn or rice virtually undamaged when applied post-emergence, even at high active ingredient dosages. In addition, some substances are also harmless to dicotyledonous crops such as soya, cotton, oilseed rape, sugar beet or potatoes. Some of the compounds according to the invention have high selectivity and are therefore suitable for controlling unwanted vegetation in agricultural crops by the post-emergence method. The data of Tables B18 to B34 below illustrate, in an exemplary manner, the […] herbicidal action of the compounds according to the invention, the herbicidal activity being stated in percent.

ALOMY = test: Pre-emergence action against ALOMY; type: in vivo, Alopecurus myosuroides; settings: dosage 320 g/ha; pre-emergence; scored visually after 3 weeks vs untreated controls; 100% = plants have died, 0% = like control plants
Summary of the method: (§1)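 Seeds sown in sandy loam in wood-fiber pots and covered with soil. Greenhouse growth; visual damage scored after 3 weeks versus untreated controls (100% = dead, 0% = like control).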

ECHCG [2] = test: Post-emergence action against ECHCG; type: in vivo, Echinochloa crus-galli; settings: post-emergence, dosage 80 g/ha, visual assessment about 3 weeks after treatment vs untreated controls
Summary of the method: (§2)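 Weeds grown in sandy loam in greenhouse, treated at one-leaf stage (2–3 weeks after sowing) with WP or EC formulations sprayed as aqueous suspension/emulsion at 600 to […] water with 0.2% wetting agent. Visual rating after about 3 weeks versus untreated controls, as % herbicidal action (100% = plants dead, 0% = like control).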

ABUTH [3] = test: Pre-emergence action against ABUTH; type: in vivo, Abutilon theophrasti; settings: pre-emergence, dosage 320 g/ha, scored visually after 3 weeks vs untreated controls
Summary of the method: as §1

MATIN [4] = test: Pre-emergence action against MATIN; type: in vivo, Matricaria inodora; settings: Dosage 320 g/ha, pre-emergence
Summary of the method: as §1

STEME [5] = test: Pre-emergence action against STEME; type: in vivo, Stellaria media; settings: Dosage 320 g/ha, pre-emergence
Summary of the method: as §1

PHBPU [6] = test: Post-emergence action against PHBPU; type: in vivo, Pharbitis purpurea; settings: post-emergence, dosage 80 g/ha
Summary of the method: as §2

STEME [7] = test: Post-emergence action against STEME; type: in vivo, Stellaria media; settings: post-emergence, dosage 80 g/ha
Summary of the method: as §2

CYPES [8] = test: Pre-emergence action against CYPES; type: in vivo, Cyperus esculentus; settings: pre-emergence, dosage 320 g/ha, scored visually after 3 weeks vs untreated controls
Summary of the method: as §1

AMARE [9] = test: Post-emergence action against AMARE; type: in vivo, Amaranthus retroflexus; settings: post-emergence, dosage 80 g/ha, visual assessment about 3 weeks after treatment vs untreated controls
Summary of the method: as §2

AMARE [10] = test: Pre-emergence action against AMARE; type: in vivo, Amaranthus retroflexus; settings: pre-emergence, dosage 320 g/ha, scored visually after 3 weeks vs untreated controls
Summary of the method: as §1

VERPE [11] = test: Pre-emergence action against VERPE; type: in vivo, Veronica persica; settings: Dosage 320 g/ha, pre-emergence
Summary of the method: as §1

PHBPU [12] = test: Pre-emergence action against PHBPU; type: in vivo, Pharbitis purpurea; settings: Dosage 320 g/ha, pre-emergence
Description: (§3) Seeds of monocotyledonous and dicotyledonous weed plants and crop plants are laid out in sandy loam soil in wood-fiber pots and covered with soil. The compounds of the invention, formulated in the form of wettable powders (WP) or as emulsion concentrates (EC), are then applied to the surface of the covering soil in the form of an aqueous suspension or emulsion at a water application rate equating to […], with addition of 0.2% wetting agent. After the treatment, the pots are placed in a greenhouse and kept under good growth conditions for the trial plants. The damage to the test plants is scored visually after a test period of 3 weeks by comparison with untreated controls (herbicidal activity in percent (%): 100% activity=the plants have died, 0% activity=like control plants).

ABUTH [13] = test: Post-emergence action against ABUTH; type: in vivo, Abutilon theophrasti; settings: post-emergence, dosage 80 g/ha, visual assessment about 3 weeks after treatment vs untreated controls
Summary of the method: as §2

VIOTR [14] = test: Pre-emergence action against VIOTR; type: in vivo, Viola tricolor; settings: Dosage 320 g/ha, pre-emergence
Summary of the method: as §1

SETVI [15] = test: Post-emergence action against SETVI; type: in vivo, Setaria viridis; settings: post-emergence, dosage 80 g/ha, visual assessment about 3 weeks after treatment vs untreated controls
Summary of the method: as §2

VIOTR [16] = test: Post-emergence action against VIOTR; type: in vivo, Viola tricolor; settings: post-emergence, dosage 80 g/ha
Summary of the method: as §2

VERPE [17] = test: Post-emergence action against VERPE; type: in vivo, Veronica persica; settings: dosage 80 g/ha
Summary of the method: as §2

ECHCG [18] = test: Pre-emergence action against ECHCG; type: in vivo, Echinochloa crus-galli; settings: pre-emergence, dosage 320 g/ha, scored visually after 3 weeks vs untreated controls
Summary of the method: as §1

MATIN [19] = test: Post-emergence action against MATIN; type: in vivo, Matricaria inodora; settings: post-emergence, dosage 80 g/ha, visual assessment about 3 weeks after treatment vs untreated controls
Summary of the method: as §2

SETVI [20] = test: Pre-emergence action against SETVI; type: in vivo, Setaria viridis; settings: pre-emergence, dosage 320 g/ha, scored visually after 3 weeks vs untreated controls
Summary of the method: as §1

AVEFA = test: Pre-emergence action against AVEFA; type: in vivo, Avena fatua; settings: dosage 320 g/ha, scored visually after 3 weeks vs untreated controls
Description: as §3

POLCO = test: Pre-emergence action against POLCO; type: in vivo, Polygonum convolvulus; settings: Dosage 320 g/ha, pre-emergence
Description: as §3

Structure (SMILES)	Post-emergence action against CYPES (herbicidal action in percent) (CYPES [1]) [%]	Pre-emergence action against ALOMY (herbicidal activity in percent) (ALOMY) [%]	Post-emergence action against ECHCG (herbicidal action in percent) (ECHCG [2]) [%]	Pre-emergence action against ABUTH (herbicidal activity) (ABUTH [3]) [%]	Pre-emergence action against MATIN (MATIN [4]) [%]	Pre-emergence action against STEME (STEME [5]) [%]	Post-emergence action against PHBPU (PHBPU [6])	Post-emergence action against STEME (STEME [7])	Pre-emergence action against CYPES (herbicidal activity) (CYPES [8]) [%]	Post-emergence action against AMARE (herbicidal action in percent) (AMARE [9]) [%]	Pre-emergence action against AMARE (herbicidal activity) (AMARE [10]) [%]	Pre-emergence action against VERPE (VERPE [11]) [%]	Pre-emergence action against PHBPU (PHBPU [12]) [%]	Post-emergence action against ABUTH (herbicidal action in percent) (ABUTH [13]) [%]	Pre-emergence action against VIOTR (VIOTR [14]) [%]	Post-emergence action against SETVI (herbicidal action in percent) (SETVI [15]) [%]	Post-emergence action against VIOTR (VIOTR [16])	Post-emergence action against VERPE (VERPE [17])	Pre-emergence action against ECHCG (herbicidal activity) (ECHCG [18]) [%]	Post-emergence action against MATIN (herbicidal action in percent) (MATIN [19]) [%]	further results
CCCn1nnnc1NC(=O)c1ccc(C(F)(F)F)c(C(C)=O)c1C [3-14]	90	90	100	100	100	100	90	100	80	100	100	100	90	90	100	100	100	80	100	100	SETVI (Table B8, pre-emergence herbicidal activity) (SETVI [20]): 100%
CCCn1nnnc1NC(=O)c1ccc(C(F)(F)F)c(C(=O)C2CC2)c1OC [3-50]	80	100	100	100	100	100	100	100	90	100	100	100	80	100	100	100	100	100		100	Pre-emergence action against AVEFA (herbicidal activity) (AVEFA): 100%; SETVI (Table B8, pre-emergence herbicidal activity) (SETVI [20]): 100%
CCCn1nnnc1NC(=O)c1ccc(C(F)(F)F)c(C(C)=O)c1SC [3-58]	100	90	100	100	100	90	90	100	90	100	100	90		100	100	80	100	80	100	100	Pre-emergence action against AVEFA (herbicidal activity) (AVEFA): 80%; Pre-emergence action against POLCO (POLCO): 80%
CCCn1nnnc1NC(=O)c1ccc(I)c(C(C)=O)c1Cl [3-192]	80	90	100	100	100	100	80	100	100	80	100		100	100	100	100	100		100	100	Pre-emergence action against AVEFA (herbicidal activity) (AVEFA): 90%; SETVI (Table B8, pre-emergence herbicidal activity) (SETVI [20]): 100%
CCCn1nnnc1NC(=O)c1ccc(C(F)(F)F)c(C(=O)C2CC2)c1Br [3-197]	90	90	90	100	100	100	100	100	80	100	100	100	90	90	100	90	100	80	100	90	Pre-emergence action against AVEFA (herbicidal activity) (AVEFA): 90%; SETVI (Table B8, pre-emergence herbicidal activity) (SETVI [20]): 100%
